Data on ten compounds can be found in PMC9611727, “Optimization of a Novel Mandelamide-Derived Pyrrolopyrimidine Series of PERK Inhibitors” (Pharmaceutics, 2022).

A short description of series [1]: Caco-2 permeability / efflux. It counts as in vitro ADME. The following applies: human, Caco-2, pH 7.4; for efflux ratio at 120 min, 5 µM: Papp (B-to-A) / Papp (A-to-B). The protocol:
P-gp Substrate Assessment using Caco-2 Monolayers
Caco-2 cells (clone C2BBe1) were obtained from American Type Culture Collection (Manassas, VA). Hanks’ balanced salt solution, valspodar and lucifer yellow were obtained from Sigma-Aldrich (St. Louis, MO). All solvents were obtained from commercial sources and used without further purification. Cell monolayers were grown to confluence on collagen-coated, microporous membranes in 12-well assay plates. Details of the plates and their certification are shown below. The permeability assay buffer was Hanks’ balanced salt solution (HBSS) containing 10 mM HEPES and 15 mM glucose at a pH of 7.4. The buffer in the receiver chamber also contained 1% bovine serum albumin. The dosing solution concentration was 5 μM of test article in the assay buffer +/- 1 μM valspodar. Cells were first pre-incubated for 30 minutes with HBSS containing +/- 1 μM valspodar. Cell monolayers were dosed on the apical side (A-to-B) or basolateral side (B-to-A) and incubated at 37°C with 5% CO2 in a humidified incubator. Samples were taken from the donor and receiver chambers at 120 minutes. Each determination was performed in duplicate. The flux of lucifer yellow was also measured post-experimentally for each monolayer to ensure no damage was inflicted to the cell monolayers during the flux period. All samples were assayed by LC-MS/MS using electrospray ionization.
LC-MS/MS Analysis using the PE Sciex API 4000 mass spectrometer […]
Column: Waters ACQUITY UPLC BEH Phenyl 30 × 2.1 mm, 1.7 µm
Mobile Phase Buffer: 25 mM ammonium formate buffer, pH 3.5
Aqueous Reservoir (A): 90% water, 10% buffer
Organic Reservoir (B): 90% acetonitrile, 10% buffer
Total Run Time: 1.00 minute
Autosampler: 10 µL injection volume
Wash1: water/methanol/2-propanol:1/1/1; with 0.2% formic acid
Wash2: 0.1% formic acid in water
Instrument: PE SCIEX API 4000
Interface: Turbo Ionspray
Mode: Multiple Reaction Monitoring (Negative ion mode)
Method: 1.0 minute duration
Mass Spectrometer Settings
Data Analysis and Calculations
The apparent permeability (Papp) and percent recovery were calculated as follows:
Papp = (dCr/dt) × Vr/(A × CA)
Percent recovery = 100 × ((V × Cfinal) + (V × Cfinal)) / (V × C ) […]
dCr/dt is the slope of the cumulative receiver concentration versus time in µM s-1;
Vr is the volume of the receiver compartment in cm3;
Vd is the volume of the donor compartment in cm3;
A is the area of the insert (1.13 cm2 for 12-well);
CA is the average of the nominal dosing concentration and the measured 120 minute donor concentration in μM;
CN is the nominal concentration of the dosing solution in μM;
Cfinal is the cumulative receiver concentration in μM at the end of the incubation period; […]
Cd is the concentration of the donor in μM at the end of the incubation period.
Efflux ratio (ER) is defined as Papp (B-to-A) / Papp (A-to-B). […]

Series [2] can be described thus: Metabolic clearance in hepatocytes, human. Type of series: in vitro ADME. The following applies: male, pooled cryopreserved human hepatocytes (ten donors), read-out: Hepatocyte Clearance (t1/2 min) Human. The protocol:
(§1) Metabolic Clearance in Hepatocytes
(§2) Testosterone was obtained from Cerilliant (Round Rock, TX). 7-Hydroxycoumarin was obtained from Sigma-Aldrich (St.
(§3) Louis, MO). Ten-donor male pooled cryopreserved human hepatocytes, cryopreserved male Sprague Dawley rat hepatocytes, cryopreserved male ICR/CD-1 mouse hepatocytes, cryopreserved male beagle dog hepatocytes, In VitroGro HI Medium (Incubation), and InVitroGro HT Medium (Thawing) were obtained from Bioreclamation IVT (Baltimore, MD). All solvents were obtained from commercial sources and used without further purification.Test compound was prepared as a 1 mM stock solution in DMSO. A 2 µM solution of test compound and testosterone was prepared (7 - hydroxycoumarin was prepared at 20 µM) in In VitroGro HI Medium (Incubation). These solutions were placed in a sterile incubator set to maintain 37°C, 5% CO2, and 98% humidity to pre-warm. Cryopreserved hepatocytes were prepared at a concentration of 2 x 10^6 living cells/mL in incubation media and placed in the incubator to pre-warn. The compound solutions and hepatocyte mixtures were then combined at a ratio of 1:1 (v:v). The final volume of the reaction mixture was 750 µL, containing 1 µM test compound and 1 x 10^6 cells/mL. The reaction mixture was placed in the incubator on a plate shaker. After 0, 15, 30, 60, 90, and 120 minutes of incubation, 100 µL of reaction mixtures were removed from the incubation plate and mixed with 150 µL of ice-cold acetonitrile in a designated well of a 96-well crash plate. The 96-well crash plate was placed on ice for 15 min, and samples were centrifuged (3,600 rpm, 10 min, 4 °C) to precipitate protein.
(§4) The supernatants were diluted 1:1 (v/v) with water containing tolbutamide, (internal standard for positive and negative modes, respectively) in a 96-well shallow injection plate. This plate was sealed for LC-MS analysis. All measurements

A short description of series [3]: Metabolic clearance in hepatocytes, mouse. It counts as in vitro ADME. The following applies: male, ICR/CD-1, cryopreserved mouse hepatocytes, read-out: Hepatocyte Clearance (t1/2 min) Mouse. The protocol:
as §1, §2, §3, §4

A short description of series [4]: Metabolic clearance in hepatocytes, dog. Type of series: in vitro ADME. The following applies: male, beagle, cryopreserved dog hepatocytes, read-out: Hepatocyte Clearance (t1/2 min) Dog. How it is done: as §1, §2, §3, §4
The nature of series [5]: Mouse plasma PK after oral gavage. Type of series: in vivo. The following applies: female, CD1, mouse, mice, 10 mg/kg PO. How it is done: For PK analysis of pyrrolopyrimidine analogs in mouse, rat, and dog plasma, the oral formulation was prepared as a solution containing 20% (w/v) Captisol in 25 mM NaH2PO4 buffer (pH 2). Compounds were administered orally by gavage at 10 mg/kg to female CD1 mice. After dosing, plasma samples were collected to characterize the PK profiles at 0.25, 0.5, 1, 2, 4, 8, 12 and 24 h post-dose. The plasma concentration of compound was determined by protein precipitation with acetonitrile and liquid chromatography with mass spectrometric detection (LC-MS/MS). Parameters were estimated using Phoenix (WinNonlin) pharmacokinetic software version 6.1.0 using a non-compartmental approach consistent with the oral route of administration. PK analysis of 26 in plasma and pancreas followed a similar analytical method as above, with minor modifications. Compound 26 was suspended in a vehicle consisting of 0.5% methylcellulose (400 cP) and 0.1% Tween80 in water and administered to BALB/c nude mice by oral gavage at 0.3, 1, 3, 10, 30 mg/kg. Plasma and pancreas were sampled from 5 mice per group following a single oral administration at 1, 4, 8, 12, 24 h post-dose.

Broadly, the Papp A→B is the apparent permeability from the apical to the basolateral side of a cell layer. Low values mean poor permeation, high ones ready permeation. What is called efflux ratio is the permeability from basolateral to apical divided by that in the opposite direction, in the common usage. A word on the AUC(0-t): it is the area under the concentration-time curve up to a stated or last time point. A lower AUC(0-t) goes with less exposure. As a reminder, the Cmax is the highest concentration seen after dosing.

Where only a bound is given, the exact number is not on record here.

With `Cc1nc(N)c2c(-c3ccc(NC(=O)[C@H](O)c4cccc(F)c4)cc3C)cn(C)c2n1` [Compound 24], in series [1], the Papp A→B at 120 min, 5 µM came out at 9 ×10⁻⁶ cm/s and the efflux ratio at 120 min, 5 µM was 5.2. For the same compound, the half-life at 1 µM in series [2] came out at 12.2 h. The half-life at 1 µM in series [3] was determined as 0.517 h. In addition, in series [4], the half-life at 1 µM is more than 16.7 h. Moreover, in series [5], the AUC(0-t) turned out to be 37500 ng·h/mL, the Cmax worked out at 13100 ng/mL, the bioavailability was 77% and the half-life is 2.1 h.
`Cc1nc(N)c2c(-c3ccc(NC(=O)[C@H](O)c4cccc(C(F)(F)F)c4)cc3C)cn(C)c2n1` [Compound 26]: in series [1], the Papp A→B at 120 min, 5 µM is 21 ×10⁻⁶ cm/s and the efflux ratio at 120 min, 5 µM turned out to be 2.2. Also, the half-life at 1 µM in series [2] amounted to 3.23 h. The half-life at 1 µM in series [3] is 1.97 h. Further, in series [4], the half-life at 1 µM was 2.17 h. Moreover, in series [5], the AUC(0-t) is 126000 ng·h/mL, the Cmax was found to be 17200 ng/mL, the bioavailability was found to be 82% and the half-life is 3.5 h.
For `Cc1nc(N)c2c(-c3ccc(NC(=O)[C@H](O)c4cccc(Cl)c4)cc3C)cn(C)c2n1` [Compound 28], in series [1], the Papp A→B at 120 min, 5 µM was 23 ×10⁻⁶ cm/s and the efflux ratio at 120 min, 5 µM turned out to be 1.9. In series [2], the half-life at 1 µM was 13 h. In addition, in series [3], the half-life at 1 µM came out at 1.03 h. Further, the half-life at 1 µM in series [4] is 5.92 h. For the same compound, in series [5], the AUC(0-t) came out at 65800 ng·h/mL, the Cmax stood at 14100 ng/mL, the bioavailability was determined as 84% and the half-life is 2.4 h.
Take `Cc1nc(N)c2c(-c3ccc(NC(=O)[C@H](O)c4cc(F)cc(F)c4)cc3C)cn(C)c2n1` [Compound 38]: in series [1], the Papp A→B at 120 min, 5 µM stood at 19 ×10⁻⁶ cm/s and the efflux ratio at 120 min, 5 µM is 1.9. Moreover, the half-life at 1 µM in series [2] amounted to 14.9 h. In addition, in series [3], the half-life at 1 µM is 13.4 h. Further, the half-life at 1 µM in series [4] came out at 7.67 h. For the same compound, in series [5], the AUC(0-t) was determined as 28900 ng·h/mL, the concentration peaked (Cmax) at 8600 ng/mL, the bioavailability worked out at 94% and the half-life was 2 h.
With `Cc1nc(N)c2c(-c3ccc(NC(=O)[C@H](O)c4cc(F)cc(C(F)(F)F)c4)cc3C)cn(C)c2n1` [Compound 39], in series [1], the Papp A→B at 120 min, 5 µM amounted to 16 ×10⁻⁶ cm/s and the efflux ratio at 120 min, 5 µM worked out at 2. In series [2], the half-life at 1 µM was found to be 4.62 h. Moreover, in series [3], the half-life at 1 µM worked out at 5.33 h. The half-life at 1 µM in series [4] turned out to be 3.72 h. In series [5], the AUC(0-t) came out at 86400 ng·h/mL, the Cmax is 14300 ng/mL, the bioavailability came to 78% and the half-life was 2.9 h.
For the compound `Cc1cc(F)cc([C@@H](O)C(=O)Nc2ccc(-c3cn(C)c4nc(C)nc(N)c34)c(C)c2)c1` [Compound 41], in series [1], the Papp A→B at 120 min, 5 µM turned out to be 20 ×10⁻⁶ cm/s and the efflux ratio at 120 min, 5 µM worked out at 2.5. Further, in series [2], the half-life at 1 µM stood at 1.13 h. Moreover, the half-life at 1 µM in series [3] worked out at 0.4 h. Further, the half-life at 1 µM in series [4] turned out to be 3.87 h. For the same compound, in series [5], the AUC(0-t) amounted to 26000 ng·h/mL, the peak level (Cmax) was 12500 ng/mL, the bioavailability was 40% and the half-life was 2.7 h.
As to `Cc1nc(N)c2c(-c3ccc(NC(=O)[C@H](O)c4cccc(Cl)c4)cc3F)cn(C)c2n1` [Compound 48], in series [1], the Papp A→B at 120 min, 5 µM stood at 24 ×10⁻⁶ cm/s and the efflux ratio at 120 min, 5 µM stood at 1.6. Also, the half-life at 1 µM in series [2] stood at 9.27 h. Moreover, in series [3], the half-life at 1 µM stood at 0.883 h. For the same compound, the half-life at 1 µM in series [4] was 3.58 h. Besides, in series [5], the AUC(0-t) was found to be 10900 ng·h/mL, the Cmax was 3020 ng/mL, the bioavailability came to 70% and the half-life was 2.1 h.
As to `Cc1nc(N)c2c(-c3ccc(NC(=O)[C@H](O)c4cccc(F)c4)c(F)c3C)cn(C)c2n1` [Compound 65], in series [1], the Papp A→B at 120 min, 5 µM was determined as 26 ×10⁻⁶ cm/s and the efflux ratio at 120 min, 5 µM came out at 1.6. Moreover, the half-life at 1 µM in series [2] amounted to 6.5 h. Further, the half-life at 1 µM in series [3] stood at 1.07 h. Further, the half-life at 1 µM in series [4] is 9.45 h. Moreover, in series [5], the AUC(0-t) turned out to be 40100 ng·h/mL, the concentration peaked (Cmax) at 8150 ng/mL, the bioavailability came out at 129% and the half-life is 2.2 h.
On to `Cc1nc(N)c2c(-c3cc(F)c(NC(=O)[C@H](O)c4cccc(F)c4)cc3C)cn(C)c2n1` [Compound 66], for which, in series [1], the Papp A→B at 120 min, 5 µM stood at 24 ×10⁻⁶ cm/s and the efflux ratio at 120 min, 5 µM worked out at 1.5. In addition, in series [2], the half-life at 1 µM was determined as 5.97 h. In addition, in series [3], the half-life at 1 µM is 2.78 h. Besides, the half-life at 1 µM in series [4] was 0.65 h. In series [5], the AUC(0-t) was 39800 ng·h/mL, the Cmax stood at 9610 ng/mL, the bioavailability was determined as 126% and the half-life was 2 h.
In the case of `Cc1nc(N)c2c(-c3ccc(NC(=O)[C@H](O)c4cccc(F)c4)c(F)c3F)cn(C)c2n1` [Compound 70, (R)-N-(4-(4-amino-2,7-dimethyl-7H-pyrrolo[2,3-d]pyrimidin-5-yl)-2,3-difluorophenyl)-2-(3-fluorophenyl)-2-hydroxyacetamide], in series [1], the Papp A→B at 120 min, 5 µM was 29 ×10⁻⁶ cm/s and the efflux ratio at 120 min, 5 µM was determined as 1.7. Further, in series [2], the half-life at 1 µM is 6 h. For the same compound, in series [3], the half-life at 1 µM was determined as 0.75 h. In series [4], the half-life at 1 µM was 4.47 h. In series [5], the AUC(0-t) was 32300 ng·h/mL, the highest level (Cmax) was 9720 ng/mL, the bioavailability came out at 117% and the half-life was 2 h.
